Data taken from ChEMBL document CHEMBL1150124, “Steroidal and pregnane glycosides from the rhizomes of Tacca chantrieri” (J Nat Prod, 2002).
The source made the active and inactive calls. The rule behind the calls is not given here.

Tested on: HL-60
Test: Cytotoxicity against human HL60 cells at 10 ug/mL
Type: functional, cell-based

| Compound | Activity |
| --- | --- |
| CC(=O)OC[C@H]1O[C@@H](O[C@H]2CC[C@@]3(C)C(=CC[C@H]4[C@@H]5C[C@@H]6OC(CC[C@H](C)CO[C@@H]7O[C@H](CO)[C@@H](O)[C@H](O)[C@H]7O)=C(C)[C@@H]6[C@@]5(C)CC[C@@H]43)C2)[C@H](O[C@@H]2O[C@@H](C)[C@H](O)[C@@H](O)[C@H]2O)[C@@H](O[C@@H]2O[C@@H](C)[C@H](O[C@@H]3O[C@H](CO)[C@@H](O)[C@H](O)[C@H]3O)[C@@H](O)[C@H]2O)[C@@H]1O | inactive |
| CC(=O)C1=CC[C@H]2[C@@H]3CC=C4C[C@@H](O[C@@H]5O[C@H](CO)[C@@H](O)[C@H](O[C@@H]6O[C@@H](C)[C@H](O[C@@H]7O[C@H](CO)[C@@H](O)[C@H](O)[C@H]7O)[C@@H](O)[C@H]6O)[C@H]5O[C@@H]5O[C@@H](C)[C@H](O)[C@@H](O)[C@H]5O)CC[C@]4(C)[C@H]3CC[C@]12C | inactive |
| CC(=O)[C@H]1[C@@H](OC(=O)CC[C@H](C)CO[C@@H]2O[C@H](CO)[C@@H](O)[C@H](O)[C@H]2O)C[C@H]2[C@@H]3CC=C4C[C@@H](O[C@@H]5O[C@H](CO)[C@@H](O)[C@H](O[C@@H]6O[C@@H](C)[C@H](O[C@@H]7O[C@H](CO)[C@@H](O)[C@H](O)[C@H]7O)[C@@H](O)[C@H]6O)[C@H]5O[C@@H]5O[C@@H](C)[C@H](O)[C@@H](O)[C@H]5O)CC[C@]4(C)[C@H]3CC[C@@]21C | inactive |
| CO[C@]1(CC[C@H](C)CO[C@@H]2O[C@H](CO[C@@H]3O[C@H](CO)[C@@H](O)[C@H](O)[C@H]3O)[C@@H](O)[C@H](O)[C@H]2O)O[C@H]2C[C@H]3[C@@H]4CC=C5C[C@@H](O[C@@H]6O[C@H](CO)[C@@H](O)[C@H](O[C@@H]7O[C@@H](C)[C@H](O[C@@H]8O[C@H](CO)[C@@H](O)[C@H](O)[C@H]8O)[C@@H](O)[C@H]7O)[C@H]6O[C@@H]6O[C@@H](C)[C@H](O)[C@@H](O)[C@H]6O)CC[C@]5(C)[C@H]4CC[C@]3(C)[C@H]2[C@@H]1C | inactive |
| CC1=C(CC[C@H](C)CO[C@@H]2O[C@H](CO)[C@@H](O)[C@H](O)[C@H]2O)O[C@H]2C[C@H]3[C@@H]4CC=C5C[C@@H](O[C@@H]6O[C@H](CO)[C@@H](O)[C@H](O[C@@H]7O[C@@H](C)[C@H](O[C@@H]8O[C@H](CO)[C@@H](O)[C@H](O)[C@H]8O)[C@@H](O)[C@H]7O)[C@H]6O[C@@H]6O[C@@H](C)[C@H](O)[C@@H](O)[C@H]6O)CC[C@]5(C)[C@H]4CC[C@]3(C)[C@@H]12 | inactive |
| CO[C@]1(CC[C@H](C)CO[C@@H]2O[C@H](CO)[C@@H](O)[C@H](O)[C@H]2O)O[C@H]2C[C@H]3[C@@H]4CC=C5C[C@@H](O[C@@H]6O[C@H](COC(C)=O)[C@@H](O)[C@H](O[C@@H]7O[C@@H](C)[C@H](O[C@@H]8O[C@H](CO)[C@@H](O)[C@H](O)[C@H]8O)[C@@H](O)[C@H]7O)[C@H]6O[C@@H]6O[C@@H](C)[C@H](O)[C@@H](O)[C@H]6O)CC[C@]5(C)[C@H]4CC[C@]3(C)[C@H]2[C@@H]1C | inactive |
| CO[C@]1(CC[C@H](C)CO[C@@H]2O[C@H](CO)[C@@H](O)[C@H](O)[C@H]2O)O[C@H]2C[C@H]3[C@@H]4CC=C5C[C@@H](O[C@@H]6O[C@H](CO)[C@@H](O)[C@H](O[C@@H]7O[C@@H](C)[C@H](O[C@@H]8O[C@H](CO)[C@@H](O)[C@H](O)[C@H]8O)[C@@H](O)[C@H]7O)[C@H]6O[C@@H]6O[C@@H](C)[C@H](O)[C@@H](O)[C@H]6O)CC[C@]5(C)[C@H]4CC[C@]3(C)[C@H]2[C@@H]1C | inactive |
